Laboratory results: the supplement of paper PMC8967900

What was measured:
Assay in all cases: selective drug sensitivity score (sDSS, relative to normal bone marrow) (sDSS (score)); higher = more potent and effective on the cell line relative to normal bone marrow cells
Conditions in all cases: 72 h
[1] = system: REH
[2] = system: JURKAT
[3] = system: 697
[4] = system: ALL-SIL
[5] = system: COG-LL-355h
[6] = system: COG-LL-317
[7] = system: COG-LL-402h
[8] = system: P30-OHKUBO
[9] = system: HAL-01
[10] = system: SUP-B15
[11] = system: LC4-1
[12] = system: PEER
[13] = system: RPMI-8402
[14] = system: SEM cells
[15] = system: MHH-CALL-2
[16] = system: NALM-16
[17] = system: MOLT-14
[18] = system: KASUMI-2
[19] = system: MHH-CALL-3
[20] = system: NALM-6
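Further: ALL cell lines in 384-well plates, five doses spanning 10,000-fold, each plate scaled between vehicle and 100 µmol/L benzalkonium chloride controls, sDSS an adapted area-under-curve metric.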

| SMILES | selective drug sensitivity score [1] | selective drug sensitivity score [2] | selective drug sensitivity score [3] | selective drug sensitivity score [4] | selective drug sensitivity score [5] | selective drug sensitivity score [6] | selective drug sensitivity score [7] | selective drug sensitivity score [8] | selective drug sensitivity score [9] | selective drug sensitivity score [10] | selective drug sensitivity score [11] | selective drug sensitivity score [12] | selective drug sensitivity score [13] | selective drug sensitivity score [14] | selective drug sensitivity score [15] | selective drug sensitivity score [16] | selective drug sensitivity score [17] | selective drug sensitivity score [18] | selective drug sensitivity score [19] | selective drug sensitivity score [20] |
| --- | --- | --- | --- | --- | --- | --- | --- | --- | --- | --- | --- | --- | --- | --- | --- | --- | --- | --- | --- | --- |
| CCS(=O)(=O)N1CC(CC#N)(n2cc(-c3ncnc4[nH]ccc34)cn2)C1 [Baricitinib] (top concentration 2500 nM) | -1.94 | -1.94 | -1.94 | 4.66 | -1.94 | -1.94 | -1.94 | -1.94 | -1.94 | -1.94 | -1.94 | 0.96 | -1.94 | -1.94 | -1.94 | -1.94 | -1.94 | -1.94 | -1.94 | -1.94 |
| CC(O)(CS(=O)(=O)c1ccc(F)cc1)C(=O)Nc1ccc(C#N)c(C(F)(F)F)c1 (stereo not given) [Bicalutamide] (top concentration 10000 nM) | -1.68 | 0.42 | -0.68 | -1.68 | 2.62 | 0.52 | -1.68 | -1.68 | -1.68 | 4.62 | -1.68 | -0.18 | 1.02 | -1.68 | -1.68 | 0.62 | 2.52 | -1.68 | -1.68 | 2.02 |
| COc1cc(Nc2c(C#N)cnc3cc(OCCCN4CCN(C)CC4)c(OC)cc23)c(Cl)cc1Cl [Bosutinib] (top concentration 10000 nM) | -1.94 | -0.74 | 5.86 | 26.7 | 1.86 | -2.64 | 5.66 | 3.56 | -0.54 | 16 | 0.96 | 9.16 | 1.56 | 1.96 | 7.66 | -3.04 | 1.86 | -2.04 | 8.06 | -1.24 |
| Cc1cc2c(F)c(Oc3ncnn4cc(OC[C@@H](C)O)c(C)c34)ccc2[nH]1 [Brivanib] (top concentration 1000 nM) | 0.96 | 1.46 | 0.66 | -0.04 | -0.04 | -0.04 | -0.04 | -0.04 | -0.04 | -0.04 | -0.04 | -0.04 | 0.46 | -0.04 | -0.04 | -0.04 | 0.26 | -0.04 | -0.04 | -0.04 |
| Cc1ccc(-c2cc(C(F)(F)F)nn2-c2ccc(S(N)(=O)=O)cc2)cc1 [Celecoxib] (top concentration 10000 nM) | -0.06 | 0.14 | -0.06 | 0.54 | -0.06 | -0.06 | -0.06 | -0.06 | 0.04 | 2.44 | 1.24 | 0.94 | 0.54 | -0.06 | 0.34 | -0.06 | -0.06 | 7.54 | 5.24 | -0.06 |
| N.N.[Cl][Pt][Cl] [Cisplatin] (top concentration 100000 nM) | 10.8 | 13.1 | 19.7 | 8.94 | 5.84 | 23.2 | 1.54 | 16.7 | 12 | 17.4 | 17.7 | 2.64 | 4.04 | 12.2 | 14.6 | -0.86 | 18.6 | 17.2 | 4.04 | 0.64 |
| Cc1c2oc3c(C)ccc(C(=O)N[C@@H]4C(=O)N[C@H](C(C)C)C(=O)N5CCC[C@H]5C(=O)N(C)CC(=O)N(C)[C@@H](C(C)C)C(=O)O[C@@H]4C)c3nc-2c(C(=O)N[C@@H]2C(=O)N[C@H](C(C)C)C(=O)N3CCC[C@H]3C(=O)N(C)CC(=O)N(C)[C@@H](C(C)C)C(=O)O[C@@H]2C)c(N)c1=O [Dactinomycin] (top concentration 1000 nM) | 16.3 | 2.64 | 19.2 | 8.04 | 8.54 | 20.7 | 15.2 | 19.1 | 1.04 | 20.7 | 17.5 | 0.64 | 1.54 | 11.3 | 12.4 | 5.24 | 16.9 | 15 | 15.7 | 12.5 |
| O=C(O)CCCCC(CCSCc1ccccc1)SCc1ccccc1 (stereo not given) [Devimistat (CPI-613)] (top concentration 10000 nM) | 0 | 0 | 0 | 0 | 2.4 | 0 | 0 | 0 | 0 | 0 | 2.1 | 0.1 | 0 | 0.6 | 0.8 | 0.4 | 0 | 0 | 1 | 0 |
| CC(=O)O[C@@]12CO[C@@H]1C[C@H](O)[C@@]1(C)C(=O)[C@H](O)C3=C(C)[C@@H](OC(=O)[C@H](O)[C@@H](NC(=O)OC(C)(C)C)c4ccccc4)C[C@@](O)([C@@H](OC(=O)c4ccccc4)[C@H]21)C3(C)C [Docetaxel] (top concentration 1000 nM) | 21.1 | 17.1 | 23.4 | 20.6 | 5.1 | 20.6 | 15 | 20.4 | 4.9 | 21.7 | 22.9 | 22.3 | 13.2 | 19.5 | 18.6 | 12.3 | 19.5 | 16.4 | 7.3 | 14.1 |
| Cc1ccc(-n2nc(C(C)(C)C)cc2NC(=O)Nc2ccc(OCCN3CCOCC3)c3ccccc23)cc1 [Doramapimod] (top concentration 10000 nM) | 5.36 | 1.16 | 4.96 | -0.24 | 1.26 | 10.9 | 2.66 | 4.26 | -0.24 | 5.16 | 1.76 | 1.86 | 1.96 | 1.06 | 4.56 | 7.06 | -0.24 | -0.24 | -0.24 | -0.24 |
| Cc1ccc(NS(=O)(=O)c2cccc(C#N)c2)c2[nH]cc(C#N)c12 [E7820] (top concentration 50000 nM) | 13.7 | 21.7 | 21.7 | 20.2 | 6.22 | 21.9 | 17.2 | 17.3 | 12.3 | 8.72 | 11.8 | 17.8 | 17.9 | 19.5 | 19.4 | 1.82 | 21.3 | 5.82 | 7.82 | 19.2 |
| C[C@@H]1CN(C(=O)c2ccc(NC(=O)c3cc(O[C@H](C)c4c(Cl)ccc(F)c4Cl)c(N)nn3)cc2)C[C@H](C)N1 [Ensartinib] (top concentration 1000 nM) | -2.24 | -2.54 | 0.26 | 1.06 | 1.86 | -2.34 | -2.34 | 2.06 | -2.84 | 3.86 | -1.44 | 1.96 | 0.06 | -0.34 | -2.84 | -2.14 | -1.74 | -1.54 | -2.84 | -0.44 |
| c1cn2cc(-c3ccc4cn[nH]c4c3)nc(Nc3ccc(N4CCOCC4)cc3)c2n1 [Entospletinib] (top concentration 5000 nM) | -0.64 | -0.64 | 3.16 | -0.64 | 1.06 | -0.64 | 0.36 | 6.96 | -0.64 | 1.36 | -0.64 | -0.64 | -0.64 | 4.56 | -0.64 | -0.64 | -0.64 | -0.64 | -0.64 | 1.26 |
| COc1cc([C@@H]2c3cc4c(cc3[C@@H](O[C@@H]3O[C@@H]5CO[C@@H](C)O[C@H]5[C@H](O)[C@H]3O)[C@H]3COC(=O)[C@H]23)OCO4)cc(OC)c1O [Etoposide] (top concentration 10000 nM) | 20.3 | 14.2 | 20.6 | 14.3 | 6.74 | 29.8 | 21.4 | 16.3 | 5.14 | 26.8 | 14.8 | 6.84 | 17.4 | 15.5 | 13.2 | 2.64 | 21.5 | 20.9 | 19.7 | 14.1 |
| CCCCCCCCc1ccc(CCC(N)(CO)CO)cc1 [Fingolimod] (top concentration 10000 nM) | -1.52 | -1.12 | -0.22 | 1.98 | 6.88 | 1.08 | -0.92 | 1.38 | 1.88 | 7.48 | 0.88 | 1.78 | -1.12 | 0.48 | 8.88 | -0.02 | 2.08 | -0.82 | -3.42 | 1.58 |
| O=C(NOCCO)c1ccc2cncn2c1Nc1ccc(I)cc1F [GDC-0623] (top concentration 2500 nM) | -3.4 | -3.2 | -2.5 | -3.4 | -0.4 | -0.8 | -3.2 | -2.4 | 3.1 | -3 | -2.3 | -0.1 | -3.3 | -3.4 | 0.6 | 0.1 | -1.6 | 0.3 | 1.7 | 3.8 |
| C[C@H]1CN(C2COC2)CCN1c1ccc(Nc2cc(-c3ccnc(N4CCn5c(cc6c5CC(C)(C)C6)C4=O)c3CO)cn(C)c2=O)nc1 [GDC-0853] (top concentration 1000 nM) | 0.2 | 0 | 0 | 1.6 | 0 | 0 | 1.1 | 0 | 0 | 0 | 0 | 0 | 0 | 0 | 0 | 0 | 0 | 0 | 0 | 0 |
